Patent publication US12599136B2, “Substituted isophthalic acid diamides and their use as herbicides” (Bayer Aktiengesellschaft, priority 2020, dated 2026)

What was measured:
Assay type in all cases: in vivo
[1] = system: Avena fatua; test: Pre-emergence herbicidal action against AVEFA; conditions: 80 g/ha; visual score after 3 weeks vs untreated controls
Outline: (§1)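 Pre-emergence soil-surface spray of formulated compound (WP or EC; 600 to 800 l/ha; 0.2% wetting agent) over seeds sown in sandy loam. After 3 weeks under greenhouse conditions, damage is estimated visually in percent against untreated plants.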

[2] = system: Viola tricolor; test: Post-emergence herbicidal action against VIOTR
Outline: (§2)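 Spray, one-leaf stage: WP or EC compound in water, 600–800 l/ha, 0.2% wetting agent. Plants held about 3 weeks in the greenhouse, then visually rated in percent of kill compared with untreated controls.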

[3] = system: Amaranthus retroflexus; test: Post-emergence herbicidal action against AMARE; conditions: 20 g/ha, visual assessment about 3 weeks after treatment
Outline: as §2

[4] = system: Alopecurus myosuroides; test: Post-emergence herbicidal action against ALOMY; conditions: 20 g/ha
Outline: as §2

[5] = system: Digitaria sanguinalis; test: Post-emergence herbicidal action against DIGSA
Outline: as §2

[6] = system: Avena fatua; test: Post-emergence herbicidal action against AVEFA; conditions: 20 g/ha, visual assessment about 3 weeks after treatment
Outline: as §2

[7] = system: Matricaria inodora; test: Post-emergence herbicidal action against MATIN; conditions: visual assessment about 3 weeks after treatment
Outline: as §2

[8] = system: Amaranthus retroflexus; test: Pre-emergence herbicidal action against AMARE; conditions: visual score after 3 weeks vs untreated controls
Outline: as §1

[9] = system: Veronica persica; test: Post-emergence herbicidal action against VERPE; conditions: 20 g/ha, visual assessment about 3 weeks after treatment
Outline: as §2

[10] = system: Veronica persica; test: Pre-emergence herbicidal action against VERPE; conditions: 80 g/ha
Outline: as §1

[11] = system: Abutilon theophrasti; test: Post-emergence herbicidal action against ABUTH; conditions: 20 g/ha
Outline: as §2

[12] = system: Echinochloa crus-galli; test: Pre-emergence herbicidal action against ECHCG; conditions: 80 g/ha; visual score after 3 weeks vs untreated controls
Outline: as §1

[13] = system: Polygonum convolvulus; test: Post-emergence herbicidal action against POLCO; conditions: 20 g/ha, visual assessment about 3 weeks after treatment
Method: Seeds of monocotyledonous and dicotyledonous weed and crop plants are laid out in sandy loam soil in wood-fiber pots, covered with soil and cultivated in a greenhouse under good growth conditions. 2 to 3 weeks after sowing, the test plants are treated at the one-leaf stage. The compounds of the invention, formulated in the form of wettable powders (WP) or as emulsion concentrates (EC), are then sprayed onto the green parts of the plants in the form of an aqueous suspension or emulsion at a water application rate equivalent to 600 to 800 l/ha, with addition of 0.2% wetting agent. After the test plants have been left to stand in the greenhouse under optimal growth conditions for about 3 weeks, the action of the preparations is assessed visually in comparison to untreated controls (herbicidal action in percent (%): 100% activity=the plants have died, 0% activity=like control plants). […] The tables below illustrate, in an illustrative manner, the post-emergence herbicidal action of the compounds of the invention, the herbicidal activity being stated in percent.

[14] = system: Matricaria inodora; test: Pre-emergence herbicidal action against MATIN; conditions: visual score after 3 weeks vs untreated controls
Outline: as §1

[15] = system: Echinochloa crus-galli; test: Post-emergence herbicidal action against ECHCG; conditions: 20 g/ha, visual assessment about 3 weeks after treatment
Outline: as §2

[16] = system: Setaria viridis; test: Pre-emergence herbicidal action against SETVI; conditions: 80 g/ha
Outline: as §1

[17] = system: Abutilon theophrasti; test: Pre-emergence herbicidal action against ABUTH; conditions: visual score after 3 weeks vs untreated controls
Outline: as §1

[18] = system: Viola tricolor; test: Pre-emergence herbicidal action against VIOTR
Outline: as §1

[19] = system: Alopecurus myosuroides; test: Pre-emergence herbicidal action against ALOMY; conditions: 80 g/ha; visual score after 3 weeks vs untreated controls
Outline: as §1

[20] = system: Digitaria sanguinalis; test: Pre-emergence herbicidal action against DIGSA
Outline: as §1

[21] = system: Setaria viridis; test: Post-emergence herbicidal action against SETVI; conditions: 20 g/ha, visual assessment about 3 weeks after treatment
Outline: as §2

SMILES: Cc1c(C(=O)Nc2nnnn2C)ccc(C(F)(F)F)c1C(=O)N(C)CC(F)F [Example 1-24]
- Pre-emergence action against AVEFA [1]: 90%
- Post-emergence action against VIOTR in % ([2]; 5 g/ha): 80%
- Post-emergence action against VIOTR in % ([2]; 20 g/ha): 90%
- Post-emergence action against AMARE in % [3]: 90%
- Post-emergence action against ALOMY [4]: 90%
- Post-emergence action against DIGSA in % ([5]; 5 g/ha): 100%
- Post-emergence action against DIGSA in % ([5]; 20 g/ha): 100%
- Post-emergence action against AVEFA in % [6]: 80%
- Post-emergence action against MATIN in % ([7]; 5 g/ha): 90%
- Post-emergence action against MATIN in % ([7]; 20 g/ha): 90%
- Pre-emergence action against AMARE ([8]; 20 g/ha): 100%
- Pre-emergence action against AMARE ([8]; 80 g/ha): 100%
- Post-emergence action against VERPE in % [9]: 80%
- Pre-emergence action against VERPE [10]: 100%
- Post-emergence action against ABUTH [11]: 80%
- Pre-emergence action against ECHCG [12]: 100%
- Post-emergence action against POLCO in % [13]: 100%
- Pre-emergence action against MATIN ([14]; 20 g/ha): 90%
- Pre-emergence action against MATIN ([14]; 80 g/ha): 100%
- Post-emergence action against ECHCG in % [15]: 80%
- Pre-emergence action against SETVI [16]: 100%
- Pre-emergence action against ABUTH ([17]; 20 g/ha): 100%
- Pre-emergence action against ABUTH ([17]; 80 g/ha): 100%
- Pre-emergence action against VIOTR ([18]; 20 g/ha): 80%
- Pre-emergence action against VIOTR ([18]; 80 g/ha): 100%
- Pre-emergence action against ALOMY [19]: 90%
- Pre-emergence action against DIGSA ([20]; 20 g/ha): 100%
- Pre-emergence action against DIGSA ([20]; 80 g/ha): 100%
- Post-emergence action against SETVI in % [21]: 80%
